Experiment [1] concerns the target T1, 5'-nucleotidase (Homo sapiens, UniProt P21589). The experiment can be described thus: Inhibition of human CD73 assessed as reduction in inorganic phosphate release upon substrate hydrolysis using AMP[…] as substrate incubated for 1 hr followed by substrate addition and measured after 2 hrs by malachite green reagent based colorimetric assay.
The target of experiment [2] is T2, 5'-nucleotidase (Mus musculus, UniProt Q61503).
T2 sequence (Q61503 whole entry): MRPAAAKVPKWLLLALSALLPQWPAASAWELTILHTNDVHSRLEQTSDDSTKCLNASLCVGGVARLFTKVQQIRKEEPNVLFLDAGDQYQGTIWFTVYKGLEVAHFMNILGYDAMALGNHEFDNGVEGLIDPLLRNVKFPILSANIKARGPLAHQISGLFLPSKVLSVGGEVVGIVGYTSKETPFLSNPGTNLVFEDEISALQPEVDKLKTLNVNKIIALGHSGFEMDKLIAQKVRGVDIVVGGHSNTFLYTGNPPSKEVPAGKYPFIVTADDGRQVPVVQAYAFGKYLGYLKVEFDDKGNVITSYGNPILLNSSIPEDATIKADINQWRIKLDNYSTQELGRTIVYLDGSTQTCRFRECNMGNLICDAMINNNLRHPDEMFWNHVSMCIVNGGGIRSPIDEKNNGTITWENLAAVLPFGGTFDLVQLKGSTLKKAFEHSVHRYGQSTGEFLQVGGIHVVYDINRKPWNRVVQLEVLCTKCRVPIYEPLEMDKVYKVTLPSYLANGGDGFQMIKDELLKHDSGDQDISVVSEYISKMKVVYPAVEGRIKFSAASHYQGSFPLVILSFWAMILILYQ
The experiment can be described thus: Inhibition of mouse CD73 assessed as reduction in inorganic phosphate release upon substrate hydrolysis using AMP[…] as substrate incubated for 1 hr followed by substrate addition and measured after 2 hrs by malachite green reagent based colorimetric assay.

Another experiment relates to MDA-MB-231. The experiment is described as follows: Cytotoxicity against human MDA-MB-231 cells assessed as inhibition of cell growth incubated for 72 hrs by CCK-8 assay. Particulars: MDA-MB-231, 72 h. It is filed as functional, cell-based. In general terms: Formazan colour is commonly taken as a measure of viable cells.
In the next experiment the test system is MIA PaCa-2. The experiment can be described thus: Cytotoxicity against human MIA PaCa-2 cells assessed as inhibition of cell growth incubated for 72 hrs by CCK-8 assay. It counts as functional, cell-based. Particulars: MIA PaCa-2, 72 h.
Experiment [3] concerns the target T1, 5'-nucleotidase. The experiment can be described thus: Potency index, ratio of betulinic acid IC50 to test compound IC50 for inhibition of human CD73 assessed as reduction in inorganic phosphate release upon substrate hydrolysis using AMP[…] as substrate incubated for 1 hr followed by substrate addition and measured after 2 hrs by malachite green reagent based colorimetric assay. Particulars: time 3.0 hrs.

Experiment [4] is described as follows: Selectivity index, ratio of IC50 for inhibition of mose CD73 to IC50 for inhibition of human CD73.
For the next experiment, the system named is CD4+ve Th. The experiment can be described thus: Induction of anti-CD3/CD28 antibodies-stimulated CD4-positive Th cell activation in C57BL/6J mouse assessed as reversal of AMP/EHNA-inhibited IFN-gamma production at 10 uM preincubated for 15 mins followed by AMP/EHNA addition and measured after 96 hrs by ELISA. It is filed as functional, cell-based. Particulars: time 5775.0 min. On the technique in general: ELISA stands for enzyme-linked immunosorbent assay.

Molecules are shown by their SMILES. Active and inactive are the calls of the source. The rule behind the calls is not given here. Some results are limits rather than exact numbers.

From ChEMBL document CHEMBL5143600, “Discovery and optimization of betulinic acid derivatives as novel potent CD73 inhibitors” (Bioorg Med Chem, 2022) come the findings set out here.

T1 sequence (P21589 whole entry): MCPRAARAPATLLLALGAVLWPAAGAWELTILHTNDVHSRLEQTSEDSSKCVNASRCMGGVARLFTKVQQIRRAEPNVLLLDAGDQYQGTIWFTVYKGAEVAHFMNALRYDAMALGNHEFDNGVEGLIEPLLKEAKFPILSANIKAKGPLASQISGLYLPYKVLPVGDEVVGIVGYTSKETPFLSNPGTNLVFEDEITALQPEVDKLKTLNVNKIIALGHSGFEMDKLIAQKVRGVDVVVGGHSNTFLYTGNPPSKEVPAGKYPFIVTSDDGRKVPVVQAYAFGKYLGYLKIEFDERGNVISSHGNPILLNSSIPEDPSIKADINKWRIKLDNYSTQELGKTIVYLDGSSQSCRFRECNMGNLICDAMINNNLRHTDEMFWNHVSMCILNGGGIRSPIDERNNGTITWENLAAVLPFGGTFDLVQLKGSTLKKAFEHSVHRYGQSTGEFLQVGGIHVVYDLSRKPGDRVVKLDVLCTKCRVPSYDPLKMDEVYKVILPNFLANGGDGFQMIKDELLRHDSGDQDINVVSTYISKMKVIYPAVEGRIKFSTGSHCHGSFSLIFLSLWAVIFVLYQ

The IC50 is the point on the concentration scale where inhibition reaches its midpoint. `C=C(C)[C@@H]1CC[C@]2(C=O)CC[C@]3(C)[C@H](CC[C@@H]4[C@@]5(C)CC[C@H](O)C(C)(C)[C@@H]5CC[C@]43C)[C@@H]12` [BETULINALDEHYDE]: the IC50 at 5'-nucleotidase [1] is greater than 100 µM.
With `C=C(C)[C@@H]1CC[C@]2(C(=O)O)CC[C@]3(C)[C@H](CC[C@@H]4[C@@]5(C)CC[C@H](OC(=O)N6CCN(C)CC6)C(C)(C)[C@@H]5CC[C@]43C)[C@@H]12`, the half-maximal inhibitory concentration (IC50) at 5'-nucleotidase [2] and at 5'-nucleotidase [1] was greater than 100 µM in each case.
Consider `C=C(C)[C@@H]1CC[C@]2(C(=O)O)CC[C@]3(C)[C@H](CC[C@@H]4[C@@]5(C)CC[C@H](OC(=O)N6CCCCC6)C(C)(C)[C@@H]5CC[C@]43C)[C@@H]12`, for which the values for the IC50 on 5'-nucleotidase [2], in the experiment on MDA-MB-231 and in the experiment on MIA PaCa-2 were 14.6 µM, greater than 100 µM and greater than 100 µM, respectively. Further, the Ratio IC50 on 5'-nucleotidase [3] amounted to 5.2; in experiment [4], 10.5.
With `C=C(C)[C@@H]1CC[C@]2(C(=O)O)CC[C@]3(C)[C@H](CC[C@@H]4[C@@]5(C)CC[C@H](OC(=O)NCCN6CCOCC6)C(C)(C)[C@@H]5CC[C@]43C)[C@@H]12`, the IC50 on 5'-nucleotidase [2] and on 5'-nucleotidase [1] was greater than 100 µM each time.
As to `C=C(C)[C@@H]1CC[C@]2(C(=O)O)CC[C@]3(C)[C@H](CC[C@@H]4[C@@]5(C)CC[C@H](O)C(C)(C)[C@@H]5CC[C@]43C)[C@@H]12` [BETULINIC ACID], the IC50 at 5'-nucleotidase [2] amounted to 68.8 µM; in the experiment on MDA-MB-231 it was 19.1 µM; in the experiment with MIA PaCa-2, 26.7 µM; on 5'-nucleotidase [1], 7.28 µM. Besides, the outcome with CD4+ve Th was Active.
Turning to `C=C(C)[C@@H]1CC[C@]2(C(=O)O)CC[C@]3(C)[C@H](CC[C@@H]4[C@@]5(C)CC[C@H](OC(=O)N6CC(O)C6)C(C)(C)[C@@H]5CC[C@]43C)[C@@H]12`, the 50% inhibitory concentration (IC50) on 5'-nucleotidase [2] and at 5'-nucleotidase [1] was greater than 100 µM in each case.
Regarding `C=C(C)[C@@H]1CC[C@]2(C(=O)O)CC[C@]3(C)[C@H](CC[C@@H]4[C@@]5(C)CC[C@H](OC(=O)N6CCCC6)C(C)(C)[C@@H]5CC[C@]43C)[C@@H]12`, the IC50 on 5'-nucleotidase [2] and on 5'-nucleotidase [1] was greater than 100 µM throughout.
Consider `C=C(C)[C@@H]1CC[C@]2(C(=O)O)CC[C@]3(C)[C@H](CC[C@@H]4[C@@]5(C)CC[C@H](OC(=O)NC(C)C)C(C)(C)[C@@H]5CC[C@]43C)[C@@H]12`, for which the IC50 on 5'-nucleotidase [2] was 59 µM; in the experiment on MDA-MB-231, greater than 100 µM; in the experiment on MIA PaCa-2 it was 77.2 µM; on 5'-nucleotidase [1], 5.69 µM. The Ratio IC50 at 5'-nucleotidase [3] was 1.3; in experiment [4] it was 10.4.
Take `C=C(C)[C@@H]1CC[C@]2(C(=O)O)CC[C@]3(C)[C@H](CC[C@@H]4[C@@]5(C)CC[C@H](OC(=O)NCCO)C(C)(C)[C@@H]5CC[C@]43C)[C@@H]12`: the IC50 at 5'-nucleotidase [2] is greater than 100 µM; on 5'-nucleotidase [1], 37.2 µM.
For `C=C(C)[C@@H]1CC[C@]2(C(=O)O)CC[C@]3(C)[C@H](CC[C@@H]4[C@@]5(C)CC[C@H](OC(=O)N6CCC(N)CC6)C(C)(C)[C@@H]5CC[C@]43C)[C@@H]12`, in that order: greater than 100 µM and greater than 100 µM.
For `C=C(C)[C@@H]1CC[C@]2(C(=O)O)CC[C@]3(C)[C@H](CC[C@@H]4[C@@]5(C)CC[C@H](OC(=O)NC6CC6)C(C)(C)[C@@H]5CC[C@]43C)[C@@H]12`, the 50% inhibitory concentration (IC50) was greater than 100 µM on 5'-nucleotidase [2] and 81.4 µM at 5'-nucleotidase [1].
`C=C(C)[C@@H]1CC[C@]2(C(=O)O)CC[C@]3(C)[C@H](CC[C@@H]4[C@@]5(C)CC[C@H](O)[C@@](C)(CO)[C@@H]5CC[C@]43C)[C@@H]12`: the IC50 at 5'-nucleotidase [1] is greater than 100 µM.
For the compound `Nc1ccn([C@@H]2O[C@H](CO)[C@@H](O)C2(F)F)c(=O)n1` [GEMCITABINE], the IC50 with MDA-MB-231 came out at 2.22 µM; in the experiment on MIA PaCa-2, 0.36 µM.
Regarding `C=C(C)[C@@H]1CC[C@]2(C(=O)O)CC[C@]3(C)[C@H](CC[C@@H]4[C@@]5(C)CC[C@H](OC(=O)N6CCNCC6)C(C)(C)[C@@H]5CC[C@]43C)[C@@H]12`, the figures for the 50% inhibitory concentration (IC50) on 5'-nucleotidase [2] and at 5'-nucleotidase [1] were 33.6 µM and 16.8 µM, respectively. For the same compound, the Ratio IC50 in experiment [4] came out at 2.
On to `C=C(C)[C@@H]1CC[C@]2(C(=O)O)CC[C@]3(C)[C@H](CC[C@@H]4[C@@]5(C)CCC(=O)C(C)(C)[C@@H]5CC[C@]43C)[C@@H]12` [BETUNOLIC ACID], for which the IC50 on 5'-nucleotidase [1] came out at 43.3 µM.
With `Nc1ncnc2c1ncn2[C@@H]1O[C@H](COP(=O)(O)CP(=O)(O)O)[C@@H](O)[C@H]1O`, the result in the experiment on CD4+ve Th was Active.
